According to patent US20250115620A1, “BRIDGED TRICYCLIC CARBAMOYLPYRIDONE COMPOUNDS AND USES THEREOF” (Gilead Sciences, Inc., priority 2022, published 2025):
pEC50: −log10 of the molar value. Where two headings read alike, the source gives them in different places.

Tests used:
in vitro = settings: human, uninfected MT-4 cells
pLAI reporter virus = test: microbe, parasite or virus in culture; type: cell-based, HIV; settings: Human immunodeficiency virus 1, MT4, 72 h
HIV-1 (IIIB) = test: microbe, parasite or virus in culture; type: cell-based; settings: Human immunodeficiency virus 1, IIIB, MT4, 120 h, read-out: MT4 EC50
[1] = HIV-1 (IIIB) in MT-4 cells, 5 days incubation, Cell Titer Glo

## C[C@H]1CC[C@]2(CC(OCC(F)(F)F)=NO2)[C@H]2CN1C(=O)c1c(O)c(=O)c(C(=O)NCc3ccc(F)cc3F)cn12 [Example 46, (3′S,5S,7′R)—N-(2,4-difluorobenzyl)-12′-hydroxy-3′-methyl-1′,11′-dioxo-3-(2,2,2-trifluoroethoxy)-1′,4′,5′,11′-tetrahydro-3′H,4H,7′H-spiro[isoxazole-5,6′-[2,7]methanopyrido[1,2-a][1,4]diazonine]-10′-carboxamide]
In vitro
  CC50 at 5 days: 7720 nM
pLAI reporter virus; read-out: RLUC 50% HS EC50
  pEC50: 8.64
pLAI reporter virus; read-out: RLUC CCM EC50
  pEC50: 10.00
HIV-1 (IIIB); [1]
  pEC50: 8.77

## C[C@H]1CC[C@]2(CC(OCC(F)F)=NO2)[C@H]2CN1C(=O)c1c(O)c(=O)c(C(=O)NCc3ccc(F)cc3F)cn12 [Example 47, (3′S,5S,7′R)—N-(2,4-difluorobenzyl)-3-(2,2-difluoroethoxy)-12′-hydroxy-3′-methyl-1′,11′-dioxo-1′,4′,5′,11′-tetrahydro-3′H,4H,7′H-spiro[isoxazole-5,6′-[2,7]methanopyrido[1,2-a][1,4]diazonine]-10′-carboxamide]
In vitro
  CC50 at 5 days: 27500 nM
pLAI reporter virus; read-out: RLUC 50% HS EC50
  pEC50: 8.19
pLAI reporter virus; read-out: RLUC CCM EC50
  pEC50: 9.30
HIV-1 (IIIB); [1]
  pEC50: 8.74

## COC1=NO[C@@]2(C=C[C@H](C)N3C[C@H]2n2cc(C(=O)NCc4ccc(F)c(Cl)c4F)c(=O)c(O)c2C3=O)C1 [Example 48, (3′S,5R,7′R)—N-(3-chloro-2,4-difluorobenzyl)-12′-hydroxy-3-methoxy-3′-methyl-1′,11′-dioxo-1′,11′-dihydro-3′H,4H,7′H-spiro[isoxazole-5,6′-[2,7]methanopyrido[1,2-a][1,4]diazonine]-10′-carboxamide]
In vitro
  CC50 at 5 days: 22900 nM
pLAI reporter virus; read-out: RLUC 50% HS EC50
  pEC50: 8.09
pLAI reporter virus; read-out: RLUC CCM EC50
  pEC50: 9.70
HIV-1 (IIIB); [1]
  pEC50: 9.40

## COC1=NO[C@@]2(CC[C@H](C)N3C[C@H]2n2cc(C(=O)NCc4ccc(F)c(Cl)c4F)c(=O)c(O)c2C3=O)C1 [Example 49, (3′S,5S,7′R)—N-(3-chloro-2,4-difluorobenzyl)-12′-hydroxy-3-methoxy-3′-methyl-1′,11′-dioxo-1′,4′,5′,11′-tetrahydro-3′H,4H,7′H-spiro[isoxazole-5,6′-[2,7]methanopyrido[1,2-a][1,4]diazonine]-10′-carboxamide]
In vitro
  CC50 at 5 days: 29800 nM
pLAI reporter virus; read-out: RLUC 50% HS EC50
  pEC50: 6.91
pLAI reporter virus; read-out: RLUC CCM EC50
  pEC50: 9.52
HIV-1 (IIIB); [1]
  pEC50: 9.15

## C[C@H]1CC[C@@]2(ON=C3OCCC[C@@H]32)[C@H]2CN1C(=O)c1c(O)c(=O)c(C(=O)NCc3c(F)cc(F)cc3F)cn12 [Example 50, (3S,3a R,3′S,7′R)-12′-hydroxy-3′-methyl-1′,11′-dioxo-N-(2,4,6-trifluorobenzyl)-1′,3a,4,4′,5,5′,6,11′-octahydro-3′H,7′H-spiro[pyrano[2,3-c]isoxazole-3,6′-[2,7]methanopyrido[1,2-a][1,4]diazonine]-10′-carboxamide]
In vitro
  CC50 at 5 days: ≥ 50000 nM
pLAI reporter virus; read-out: RLUC 50% HS EC50
  pEC50: 7.99
pLAI reporter virus; read-out: RLUC CCM EC50
  pEC50: 9.30
HIV-1 (IIIB); [1]
  pEC50: 9.10

## CNC1=NO[C@@]2(CC[C@H](C)N3C[C@H]2n2cc(C(=O)NCc4c(F)cc(F)cc4F)c(=O)c(O)c2C3=O)C1 [Example 51, (3′S,5S,7′R)-12′-hydroxy-3′-methyl-3-(methylamino)-1′,11′-dioxo-N-(2,4,6-trifluorobenzyl)-1′,4′,5′,11′-tetrahydro-3′H,4H,7′H-spiro[isoxazole-5,6′-[2,7]methanopyrido[1,2-a][1,4]diazonine]-10′-carboxamide]
In vitro
  CC50 at 5 days: 41100 nM
pLAI reporter virus; read-out: RLUC 50% HS EC50
  pEC50: 8.28
pLAI reporter virus; read-out: RLUC CCM EC50
  pEC50: 9.52
HIV-1 (IIIB); [1]
  pEC50: 8.89

## C[C@H]1CC[C@]2(CC(N(C)C)=NO2)[C@H]2CN1C(=O)c1c(O)c(=O)c(C(=O)NCc3c(F)cc(F)cc3F)cn12 [Example 52, (3′S,5S,7′R)-3-(dimethylamino)-12′-hydroxy-3′-methyl-1′,11′-dioxo-N-(2,4,6-trifluorobenzyl)-1′,4′,5′,11′-tetrahydro-3′H,4H,7′H-spiro[isoxazole-5,6′-[2,7]methanopyrido[1,2-a][1,4]diazonine]-10′-carboxamide]
In vitro
  CC50 at 5 days: 27000 nM
pLAI reporter virus; read-out: RLUC 50% HS EC50
  pEC50: 8.21
pLAI reporter virus; read-out: RLUC CCM EC50
  pEC50: 9.52
HIV-1 (IIIB)
  pEC50: 9.05
